Values quoted from earlier work as cited in patent US20250352536A1, “NEURORESTORATION COMPOSITIONS IMPLEMENTING MULTIPLE NEUROPLASTICITY INDUCING MECHANISMS OF ACTION” (Neuro-Innovators, Inc., priority 2022, published 2025).

Test system: recurrent stroke
Details: compared with aspirin, previous clinical trials

In the case of `O=C1CCc2cc(OCCCCc3nnnn3C3CCCCC3)ccc2N1` [cilostazol, Cilostazol], the hemorrhagic events is listed as “fewer hemorrhagic events” and the “incidence of recurrent stroke” value is listed as “significantly reduce the incidence of recurrent stroke”.
